Laboratory results: patent US12024543B2, “Micropeptides and use of same for modulating gene expression” (UNIVERSITE PAUL SABATIER TOULOUSE III, priority 2013, dated 2024)

Tests used:
AtmiR319a = experiment: Expression of AtmiPEP319a2 (AtmiORF319a) in tobacco expressing AtmiR319a; assay type: in vivo, Nicotiana benthamiana; conditions: overexpression of AtmiORF319a
Protocol: At present, AtmiPEP165a and AtmiPEP319a2, identified in Arabidopsis thaliana, have already been characterized.
(§1) The total RNA was extracted from roots of M. truncatula or from tobacco leaves using the extraction kit RNeasy Plant Mini Kit (Qiagen). The reverse transcription was performed using the reverse transcriptase SuperScript II (Invitrogen) starting from 500 ng of total RNA. Three repetitions (n=3) were carried out, each with two technical repetitions. Each experiment was repeated from two to three times. The amplifications by qPCR were carried out using a LightCycler 480 System thermocycler (Roche Diagnostics) by the method described in Lauressergues et al. (Plant J., 72(3): 512-22, 2012).
For the miPEPs 165a and 319a, the corresponding miORFs were cloned into pBIN19 by the method described in Combier et al. (Genes & Dev, 22: 1549-1559, 2008).
(§2) The composite plants having roots transformed with Agrobacterium rhizogenes were obtained by the method described in Boisson-Dernier et al. (Mol Plant-Microbe Interact, 18: 1269-1276, 2005). The transformed roots were verified and selected by observations of DsRED with a binocular fluorescence magnifier. The control roots correspond to roots transformed with A. rhizogenes not containing the pPEX-DsRED vector. Transformation of the tobacco leaves was carried out by the method described in Combier et al. (Genes & Dev, 22: 1549-1559, 2008).

MtmiR171b [1] = experiment: Watering of M. truncatula plants with synthetic MtmiPEP171b1, relative expression by qRT-PCR; assay type: in vivo, Medicago truncatula; conditions: watering once daily for 5 days with MtmiPEP171b1 at 0.01, 0.1 or 1 μM
Protocol: The surface of seeds of M. truncatula was sterilized and they were left to germinate on agar plates for 5 days at 4° C. in the dark. The young shoots were then grown on 12-cm square plates filled with Fahraeus medium without nitrogen and containing 7.5 μM phosphate (Lauressergues et al., Plant J., 72(3): 512-22, 2012). The lateral roots were counted every day. In pots, the plants were watered every other day with modified Long Ashton medium with low phosphorus content (Balzergue et al., Journal of Experimental Botany, (62)1049-1060, 2011).
The peptides were synthesized by Eurogentec or Smartox-Biotech. MtmiPEP171b1 was resuspended in a solution of 40% water/50% acetonitrile/10% acetic acid (v/v/v), and the other peptides were resuspended in water.
The RNA was extracted using the reagent Tri-Reagent (MRC) according to the manufacturer's instructions, except for precipitation of the RNA, which was carried out with 3 volumes of ethanol. The reverse transcription of the RNA was carried out using the specific stem-loop primer RTprimer171b in combination with hexamers for performing the reverse transcription of RNA of high molecular weight.
In brief, 1 μg of RNA was added to the stem-loop primer MIR171b (0.2 μM), the hexamer (500 ng), the buffer RT (1×), the enzyme SuperScript Reverse transcriptase (SSIII) (one unit), the dNTPs (0.2 mM each), DTT (0.8 mM) in a final reaction mixture of 25 μl. In order to carry out the reverse transcription, a reaction of pulsed reverse transcription was performed (40 repetitions of the following cycle: 16° C. for 2 minutes, 42° C. for one minute and 50° C. for one second, followed by a final inactivation of the reverse transcription at 85° C. for 5 minutes).
as §1
The mean values of the relative expression of the genes or of the production of lateral roots were analysed using the Student test or the Kruskal-Wallis test. The error bars represent the SEM (Standard Error of the Mean). The asterisks indicate a significant difference (p<0.05).

[2] = tested on: pre-MtmiR169, pre-MtmiR169a, pre-MtmiR171a, pre-MtmiR171h, pre-MtmiR393a, pre-MtmiR393b, pre-MtmiR396a, pre-MtmiR396b; experiment: Specificity of miPEP171b1: expression of different microRNA precursors of M. truncatula; assay type: in vivo, Medicago truncatula; conditions: overexpression of MtmiPEP171b1 or treatment with MtmiPEP171b1 (0.1 μM), ratio to control roots
Protocol: The expression of different microRNA precursors of Medicago truncatula (MtmiR171b SEQ ID NO: 319, MtmiR169 SEQ ID NO: 367, MtmiR169a SEQ ID NO: 368, MtmiR171a SEQ ID NO: 369, MtmiR171h SEQ ID NO: 370, MtmiR393a SEQ ID NO: 371, MtmiR393b SEQ ID NO: 372, MtmiR396a SEQ ID NO: 373 and MtmiR396b SEQ ID NO: 374) was determined and compared between control plants and plants in which MtmiORF171b encoding MtmiPEP171b1 was overexpressed (FIG. 5A), or between control plants and plants grown on culture medium containing MtmiPEP171b1 (FIG. 5B).
as §1

Medicago truncatula = experiment: Number of lateral roots in M. truncatula; assay type: in vivo; conditions: vs control plant
Protocol: The surface of seeds of M. truncatula was sterilized and they were left to germinate on agar plates for 5 days at 4° C. in the dark. […] The lateral roots were counted every day. […] The mean values of the relative expression of the genes or of the production of lateral roots were analysed using the Student test or the Kruskal-Wallis test. The error bars represent the SEM (Standard Error of the Mean). The asterisks indicate a significant difference (p<0.05).

MtmiR171b [3] = experiment: Regulation of MtmiR171b by MtmiPEP171b1 in transformed tobacco leaves; assay type: in vivo, Nicotiana benthamiana; conditions: for relative expression of pre-MtmiR171b (expression of MtmiR171b): co-expression of MtmiPEP171b1 (MtmiORF171b ATG vs ATT), FIG. 7
Protocol: In order to determine whether the mechanism of regulation of the microRNAs is conserved in other plant species, the regulation of MtmiR171b by MtmiPEP171b1 was tested in a different cellular model. For this, MtmiR171b and MtmiPEP171b1 were introduced into tobacco leaves.
The accumulation of MtmiR171b was measured in tobacco leaves transformed in order to express MtmiR171b of Medicago truncatula starting from wild-type pri-miRNA capable of producing MtmiPEP171b1, or starting from a mutated version of pri-miRNA incapable of producing MtmiPEP171b1 (in which the start codon ATG of MtmiORF171b has been replaced with ATT) (FIG. 6 and FIG. 20).
The accumulation of pre-MtmiR171b was measured in tobacco leaves transformed in order to express MtmiR171b of Medicago truncatula alone (control), or additionally expressing the wild-type MtmiORF171b of Medicago truncatula (35SmiPEP171b1 ATG), or a mutated version of MtmiORF171b in which the start codon ATG has been replaced with ATT (35SmiPEP171b1 ATT) (FIG. 7 and FIG. 21).
The leaves were watered by spraying with the peptides using peptide solutions at different concentrations (0.01, 0.1, 1 μM), firstly 12h before sampling and then a second time 30 min before sampling.
as §1
(§3) The DNA fragments of interest were amplified with Pfu polymerase (Promega). The DNA fragments were cloned using the XhoI and NotI enzymes into a pPEX-DsRED plasmid for an overexpression under the control of the constitutive strong promoter 35S, and using the KpnI-NcoI enzymes into a pPEX GUS plasmid for the reporter genes, by the method described in Combier et al. (Genes & Dev, 22: 1549-1559, 2008).
as §2

MtmiR171b [4] = experiment: Overexpression of MtmiPEP171b1 (MtmiORF171b) in M. truncatula roots, relative expression by qRT-PCR; assay type: in vivo, Medicago truncatula; conditions: vs control plant
Protocol: as §1, §3, §2

Arabidopsis thaliana = experiment: Growth of Arabidopsis thaliana plants watered with synthetic miPEP; assay type: in vivo; conditions: A. thaliana; watered with 0.1 μM synthetic peptide, 3 weeks of growth, vs water
Protocol: The photographs show two plants (top views and side views) after 3 weeks of growth: a control plant watered with water (A), and a plant watered with a composition of 0.1 μM of synthetic peptide corresponding to AtmiPEP164a (B).
The photographs show two plants (top views and side views) after 3 weeks of growth: a control plant watered with water (A), and a plant watered with a composition of 0.1 μM of synthetic peptide corresponding to AtmiPEP319a1 (B).

AtmiR164a = experiment: Northern blot of miR164a in A. thaliana roots treated with synthetic AtmiPEP164a; assay type: in vivo, Arabidopsis thaliana; conditions: 0.1 μM synthetic miPEP164a in water vs water
Protocol: Northern blot analysis was carried out according to the protocol described in Lauressergues et al. Plant J, 72(3): 512-22, 2012.
The biological samples were homogenized in a buffer containing 0.1 M of NaCl, 2% of SDS, 50 mM of Tris-HCl (pH 9), 10 mM of EDTA (pH 8) and 20 mM of mercaptoethanol, and the RNA was extracted twice with a phenol/chloroform mixture and was precipitated with ethanol.
The RNA was loaded on PAGE 15% gel and transferred to a nylon membrane (HybondNX, Amersham). RNA was hybridized with a radioactive oligonucleotide probe labelled at its end, in order to detect the RNA U6 or for miR164a.
The hybridizations were carried out at 55° C. The hybridization signals were quantified using a phosphorimager (Fuji) and normalized with the signal of the specific probe of RNA U6.

DmmiR8 = experiment: Transfected Drosophila melanogaster S2 cells, relative expression of Pre-miR8; assay type: cell-based
Protocol: S2 cells are cultured in a T75 flask in 12 mL of Schneider's medium (GIBCO), containing 1% of penicillin 100 U/mL and […] (Sigma) and 10% of decomplemented foetal calf serum (30 min at 56° C.). The transient transfections are carried out using the FuGENE® HD transfection kit (Roche), according to the recommendations. Conventionally, 1.5 million S2 cells, previously seeded in 6-well plates (3 ml of medium per well), are transfected with 250 ng of total plasmid DNA. The DNA is brought into contact with the Fugene (3 μl) in 100 μl of OPTIMEM (GIBCO). After 20 minutes, the transfection reagent formed is brought into contact with the cells in the culture medium. The RNA of the cells is extracted 66 h after transfection.

[5] = overexpression of MtmiPEP171b1 (MtmiORF171b)
[6] = tobacco expressing MtmiR171b, overexpression of MtmiPEP171b1 or 0.1 μM miPEP171b1, FIG. 9

## MFQTLYLFIYIHTNILLLS (listed as Arabidopsis thaliana) [AtmiPEP319a2]
AtmiR319a
  accumulation of AtmiR319a: increase

## MLLHRLSKFCKIERDIVYIS (listed as Medicago truncatula) [MtmiPEP171b1]
MtmiR171b [1]; vs control plant
  accumulation of MtmiR171b: increase
  expression of the HAM1 gene: decrease
  expression of the HAM2 gene: decrease
MtmiR171b [1]; vs control plants
  accumulation of pre-MtmiR171b: increase
[2]
  effect on the accumulation of the other miRNAs (precursors of MtmiR169, 169a, 171a, 171h, 393a, 393b, 396a, 396b): not on the other miRNAs
Medicago truncatula; [5]
  number of lateral roots: reduction
Medicago truncatula; watering with MtmiPEP171b1 at 0.1 μM once daily for 5 days
  number of lateral roots: reduction
MtmiR171b [3]; tobacco expressing MtmiR171b
  relative expression of pre-MtmiR171b (expression of MtmiR171b): increases
MtmiR171b [3]; tobacco expressing MtmiR171b, MtmiPEP171b1 sprayed (0.1 μM) twice, 12 h and 30 min before sampling
  accumulation of MtmiR171b: increase
MtmiR171b [3]; [6]
  accumulation of MtmiR171b: increase
  accumulation of pre-MtmiR171b: increase
MtmiR171b [3]; tobacco leaves, tags His, HA or GFP
  expression of MtmiR171b (pre-MtmiR171b) with MtmiPEP171b1 with or without protein tags: increases the expression of MtmiR171b, and this effect is independent of the presence of tags
MtmiR171b [3]; tobacco, vector expressing mtmiPEP171b vs empty vector, ATT mutant or degenerate ORF, FIG. 21
  relative expression of MtmiR171b: increases
MtmiR171b [3]; tobacco, pri-MtmiR171b with ATG of miORF171b replaced with ATT (or miORF deleted) vs wild-type pri-MtmiR171b
  accumulation of MtmiR171b in the absence of translation of MtmiPEP171b1: marked decrease
MtmiR171b [4]
  accumulation of MtmiR171b: increase
  expression of the HAM1 gene: decrease
  expression of the HAM2 gene: decrease

## MPSWHGMVLLPYVKHTHASTHTHTHNIYGCACELVFH (listed as Arabidopsis thaliana) [AtmiPEP164a1]
Arabidopsis thaliana
  plant growth: increases plant growth significantly
AtmiR164a
  accumulation of miR164a (Northern blot): increase

B1: ATGCTTCTTCATAGGCTCTCCAAATTTTGCAAAATTGAAAGAGACATAGTATATATATCTTAG (nucleic acid, listed as Medicago truncatula)
DNA: ATGCTTCTTCATAGGCTCTCCAAATTTTGCAAAATTGAAAGAGACATAGTATATATATCTTAG
modifications: listed as DNA, chemistry not fully specified
Medicago truncatula; [5]
  number of lateral roots: reduction
MtmiR171b [3]; tobacco expressing MtmiR171b
  relative expression of pre-MtmiR171b (expression of MtmiR171b): increase
MtmiR171b [4]
  accumulation of MtmiR171b: increase
  expression of the HAM1 gene: reduction
  expression of the HAM2 gene: reduction

B2: MEPGFVFVLFPTHLSTQHTQREKSILVMGLNLQSAKQSDKQNSKERKKNTQINSQRIPYRQGGQCSKVLSP (peptide)
chain: MEPGFVFVLFPTHLSTQHTQREKSILVMGLNLQSAKQSDKQNSKERKKNTQINSQRIPYRQGGQCSKVLSP
modifications: Drosophila melanogaster
DmmiR8; D. melanogaster cells overexpressing DmmiPEP8 vs miPEP8 with mutated start codons
  expression of DmmiR8 (relative expression of Pre-miR8): increases
DmmiR8; D. melanogaster cells overexpressing wild-type DmmiR8 vs DmmiR8 with mutated miPEP8 start codons
  expression of DmmiR8 (relative expression of Pre-miR8): increases
